Measured values from patent US20190151312A1, “HEPARAN SULFATE BIOSYNTHESIS INHIBITORS FOR THE TREATMENT OF DISEASES” (BioMarin Pharmaceutical Inc., priority 2014, published 2019).
Like-named read-outs stand apart in the source and are kept apart here.

Tested on: GM01896 cells (MPS II dermal fibroblasts)
Experiment: Assay 1: MPS cellular assay, MPS II (heparan sulfate disaccharide biomarkers by LC-MS)
Format: cell-based, human
Settings: Assay 1 for MPS II, heparan sulfate disaccharide biomarkers (I2a4, I2a6, I2S0 and/or I2S6), read-out: IC50 Range
In short: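 MPS II patient dermal fibroblasts (GM01896) treated with compound at ≤30 μM for 4 to 21 days. Heparan sulfate GAGs isolated by anion exchange, digested with heparinases I-III, aniline-tagged against [13C6]aniline standards and quantified by LC-MS; IC50 from curve fitting. Viability monitored by alamar blue or ATP.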

Compound COc1ccc(Nc2cc(-c3ccc4cnn(C)c4c3)nc(N3CCOCC3)n2)cc1 [(4-methoxyphenyl)[6-(1-methyl(1H-indazol-6-yl))-2-morpholin-4-ylpyrimidin-4-yl]amine] has an IC50 (Homo sapiens, Fibroblast) of 1 to 5 µM.
Clc1ccc(Nc2cc(-c3ccc4ncn(CCCN5CCCC5)c4c3)nc(N3CCOCC3)n2)cc1 [(4-chlorophenyl){2-morpholin-4-yl-6-[1-(3-pyrrolidinylpropyl)benzimidazol-6-yl]pyrimidin-4-yl}amine] was tested, and the IC50 (Homo sapiens, Fibroblast) was 0.5 to 1 µM.
With COC(=O)c1ccc(Nc2cc(-c3ccc4cnn(C)c4c3)nc(N3CCOCC3)n2)cc1 [methyl 4-{[6-(1-methyl(1H-indazol-6-yl))-2-morpholin-4-ylpyrimidin-4-yl]amino}benzoate] the IC50 (Homo sapiens, Fibroblast) was 1 to 5 µM.
Cc1nnc(-c2ccc(Nc3cc(-c4ccc5nc(C)n(CC6CC6)c5c4)nc(N4CCOCC4)n3)cc2)[nH]1 [{6-[1-(cyclopropylmethyl)-2-methylbenzimidazol-6-yl]-2-morpholin-4-ylpyrimidin-4-yl}[4-(5-methyl(4H-1,2,4-triazol-3-yl))phenyl]amine] gave an IC50 (Homo sapiens, Fibroblast) of less than 0.5 µM.
Cn1nc(CCN2CCOCC2)c2ccc(-c3cc(Nc4ccc(Br)cc4)nc(N4CCOCC4)n3)cc21 [(4-bromophenyl){6-[1-methyl-3-(2-morpholin-4-ylethyl)(1H-indazol-6-yl)]-2-morpholin-4-ylpyrimidin-4-yl}amine] gave an IC50 (Homo sapiens, Fibroblast) of 0.5 to 1 µM.
Cn1cc2ccc(Nc3cc(-c4ccc5cnn(C)c5c4)nc(N4CCOCC4)n3)cc2n1 [[6-(1-methyl(1H-indazol-6-yl))-2-morpholin-4-ylpyrimidin-4-yl](2-methyl(2H-indazol-6-yl))amine] showed an IC50 (Homo sapiens, Fibroblast) of 1 to 5 µM.
For Cn1nc(CCN2CCOCC2)c2ccc(-c3cc(Nc4ccc5cc[nH]c5c4)nc(N4CCOCC4)n3)cc21 [indol-6-yl{6-[1-methyl-3-(2-morpholin-4-ylethyl)(1H-indazol-6-yl)]-2-morpholin-4-ylpyrimidin-4-yl}amine], the IC50 (Homo sapiens, Fibroblast) was 0.5 to 1 µM.
Cn1ncc2ccc(-c3cc(Nc4ccc(-c5ncon5)cc4)nc(N4CCOCC4)n3)cc21 [[6-(1-methyl(1H-indazol-6-yl))-2-morpholin-4-ylpyrimidin-4-yl](4-(1,2,4-oxadiazol-3-yl)phenyl)amine] was tested, and the IC50 (Homo sapiens, Fibroblast) was 0.5 to 1 µM.
Compound Cn1ncc2cc(Nc3cc(-c4ccc5cnn(C)c5c4)nc(N4CCOCC4)n3)ccc21 [(1-methyl(1H-indazol-5-yl))[6-(1-methyl(1H-indazol-6-yl))-2-morpholin-4-ylpyrimidin-4-yl]amine] has an IC50 (Homo sapiens, Fibroblast) of 1 to 5 µM.
Cc1nn(C)c2cc(-c3cc(Nc4ccc(-n5cccn5)cc4)nc(N4CCOCC4)n3)ccc12 [[6-(1,3-dimethyl(1H-indazol-6-yl))-2-morpholin-4-ylpyrimidin-4-yl](4-pyrazolylphenyl)amine] gave an IC50 of less than 0.5 µM.
Clc1ccc(Nc2cc(-c3ccc4cnn(CCN5CCCC5)c4c3)nc(N3CCOCC3)n2)cc1 [(4-chlorophenyl){2-morpholin-4-yl-6-[1-(2-pyrrolidinylethyl)(1H-indazol-6-yl)]pyrimidin-4-yl}amine] showed an IC50 (Homo sapiens, Fibroblast) of 1 to 5 µM.
In the case of Cn1c(=O)n(CCN2CCOCC2)c2ccc(-c3cc(Nc4ccc(Cl)cc4)nc(N4CCOCC4)n3)cc21 [5-{6-[(4-chlorophenyl)amino]-2-morpholin-4-ylpyrimidin-4-yl}-3-methyl-1-(2-morpholin-4-ylethyl)-3-hydrobenzimidazol-2-one], the IC50 is reported as 0.5 to 1 µM.
Clc1ccc(Nc2cc(-c3ccc4c(c3)ncn4C3CC3)nc(N3CCOCC3)n2)cc1 [(4-chlorophenyl)[6-(1-cyclopropylbenzimidazol-5-yl)-2-morpholin-4-ylpyrimidin-4-yl]amine] showed an IC50 (Homo sapiens, Fibroblast) of 1 to 5 µM.
Cc1nc2cc(-c3cc(Nc4ccc(Cl)cc4)nc(N4CCOCC4)n3)ccc2n1C1COC1 [(4-chlorophenyl)[6-(2-methyl-1-oxetan-3-ylbenzimidazol-5-yl)-2-morpholin-4-ylpyrimidin-4-yl]amine] gave an IC50 (Homo sapiens, Fibroblast) of less than 0.5 µM.
Compound Cn1ncc2ccc(-c3cc(Nc4ccc5[nH]ncc5c4)nc(N4CCOCC4)n3)cc21 [1H-indazol-5-yl[6-(1-methyl(1H-indazol-6-yl))-2-morpholin-4-ylpyrimidin-4-yl]amine] has an IC50 (Homo sapiens, Fibroblast) of 1 to 5 µM.
Clc1ccc(Nc2cc(-c3ccc4c(c3)ncn4CCN3CCOCC3)nc(N3CCOCC3)n2)cc1 [(4-chlorophenyl){2-morpholin-4-yl-6-[1-(2-morpholin-4-ylethyl)benzimidazol-5-yl]pyrimidin-4-yl}amine] showed an IC50 (Homo sapiens, Fibroblast) of 0.5 to 1 µM.
In the case of Cn1nc(CN2CCOCC2)c2ccc(-c3cc(Nc4ccc(Cl)cc4)nc(N4CCOCC4)n3)cc21 [(4-chlorophenyl){6-[1-methyl-3-(morpholin-4-ylmethyl)(1H-indazol-6-yl)]-2-morpholin-4-ylpyrimidin-4-yl}amine], the IC50 (Homo sapiens, Fibroblast) is reported as 1 to 5 µM.
Clc1ccc(Nc2cc(-c3ccc4nc[nH]c4c3)nc(N3CCOCC3)n2)cc1 [(6-benzimidazol-6-yl-2-morpholin-4-ylpyrimidin-4-yl)(4-chlorophenyl)amine] gave an IC50 (Homo sapiens, Fibroblast) of 0.5 to 1 µM.
For Cn1nc(CCN2CCOCC2)c2ccc(-c3cc(Nc4ccc(-c5ncc[nH]5)cc4)nc(N4CCOCC4)n3)cc21 [(4-imidazol-2-ylphenyl){6-[1-methyl-3-(2-morpholin-4-ylethyl)(1H-indazol-6-yl)]-2-morpholin-4-ylpyrimidin-4-yl}amine], the IC50 (Homo sapiens, Fibroblast) was 1 to 5 µM.
For Clc1ccc(Nc2cc(-c3ccc4ncn(C5CC5)c4c3)nc(N3CCOCC3)n2)cc1 [(4-chlorophenyl)[6-(1-cyclopropylbenzimidazol-6-yl)-2-morpholin-4-ylpyrimidin-4-yl]amine], the IC50 (Homo sapiens, Fibroblast) was 0.5 to 1 µM.
With Cn1ccc2ccc(Nc3cc(-c4ccc5c(CCCN6CCCC6)nn(C)c5c4)nc(N4CCOCC4)n3)cc21 [(1-methylindol-6-yl) {6-[1-methyl-3-(3-pyrrolidinylpropyl)(1H-indazol-6-yl)]-2-morpholin-4-ylpyrimidin-4-yl}amine] the IC50 was 0.5 to 1 µM.
Cc1nn(C)c2cc(-c3cc(Nc4ccc(-c5nnc[nH]5)cc4)nc(N4CCOCC4)n3)cnc12 [(4-(4H-1,2,4-triazol-3-yl)phenyl)[6-(1,3-dimethylpyrazolo[4,5-b]pyridin-6-yl)-2-morpholin-4-ylpyrimidin-4-yl]amine] was tested, and the IC50 (Homo sapiens, Fibroblast) was less than 0.5 µM.
Cc1ccc(Nc2cc(-c3ccc4c(CCN5CCOCC5)nn(C)c4c3)nc(N3CCOCC3)n2)cc1 [{6-[1-methyl-3-(2-morpholin-4-ylethyl)(1H-indazol-6-yl)]-2-morpholin-4-ylpyrimidin-4-yl}(4-methylphenyl)amine] showed an IC50 (Homo sapiens, Fibroblast) of 0.5 to 1 µM.
Work on Cn1ncc2ccc(-c3cc(Nc4ccc(C#N)cc4)nc(N4CCOCC4)n3)cc21 [4-{[6-(1-methyl(1H-indazol-6-yl))-2-morpholin-4-ylpyrimidin-4-yl]amino}benzenecarbonitrile] yielded an IC50 (Homo sapiens, Fibroblast) of 1 to 5 µM.
COCCn1cnc2ccc(-c3cc(Nc4ccc(C(=O)O)cc4)nc(N4CCOCC4)n3)cc21 [4-({6-[1-(2-methoxyethyl)benzimidazol-6-yl]-2-morpholin-4-ylpyrimidin-4-yl}amino)benzoic acid] gave an IC50 (Homo sapiens, Fibroblast) of 1 to 5 µM.
Clc1ccc(Nc2cc(-c3ccc4cnn(C5CCC5)c4c3)nc(N3CCOCC3)n2)cc1 [(4-chlorophenyl)[6-(1-cyclobutyl(1H-indazol-6-yl))-2-morpholin-4-ylpyrimidin-4-yl]amine] showed an IC50 (Homo sapiens, Fibroblast) of 1 to 5 µM.
Work on Cn1nc(CCN2CCOCC2)c2ccc(-c3cc(Nc4ccc(C#N)cc4)nc(N4CCOCC4)n3)cc21 [4-({6-[1-methyl-3-(2-morpholin-4-ylethyl)(1H-indazol-6-yl)]-2-morpholin-4-ylpyrimidin-4-yl}amino)benzenecarbonitrile] yielded an IC50 (Homo sapiens, Fibroblast) of 1 to 5 µM.
Compound Cc1ccc(Nc2cc(-c3ccc4cnn(C)c4c3)nc(N3CCOCC3)n2)cc1 [[6-(1-methyl(1H-indazol-6-yl))-2-morpholin-4-ylpyrimidin-4-yl](4-methylphenyl)amine] has an IC50 (Homo sapiens, Fibroblast) of 1 to 5 µM.
Cn1nc(CCN2CCOCC2)c2cc(F)c(-c3cc(Nc4ccc(Cl)cc4)nc(N4CCOCC4)n3)cc21 [(4-chlorophenyl){6-[5-fluoro-1-methyl-3-(2-morpholin-4-ylethyl)(1H-indazol-6-yl)]-2-morpholin-4-ylpyrimidin-4-yl}amine] gave an IC50 (Homo sapiens, Fibroblast) of 0.5 to 1 µM.
Cc1ccc(Nc2cc(-c3ccc4c(c3)ncn4C)nc(N3CCOCC3)n2)cc1 [[6-(1-methylbenzimidazol-5-yl)-2-morpholin-4-ylpyrimidin-4-yl](4-methylphenyl)amine] showed an IC50 (Homo sapiens, Fibroblast) of 0.5 to 1 µM.
CCc1nn(C)c2cc(-c3cc(Nc4ccc(Cl)cc4)nc(N4CCOCC4)n3)cnc12 [(4-chlorophenyl)[6-(3-ethyl-1-methylpyrazolo[4,5-b]pyridin-6-yl)-2-morpholin-4-ylpyrimidin-4-yl]amine] was tested, and the IC50 (Homo sapiens, Fibroblast) was 1 to 5 µM.
Cc1nn(-c2ccc(Nc3cc(-c4ccc5c(C)nn(C)c5c4)nc(N4CCOCC4)n3)cc2)nc1C [[4-(4,5-dimethyl(1,2,3-triazol-2-yl))phenyl][6-(1,3-dimethyl(1H-indazol-6-yl))-2-morpholin-4-ylpyrimidin-4-yl]amine] showed an IC50 (Homo sapiens, Fibroblast) of 1 to 5 µM.
COCCn1cnc2ccc(-c3cc(Nc4ccc(Cl)cc4)nc(N4CCOCC4)n3)cc21 [(4-chlorophenyl){6-[1-(2-methoxyethyl)benzimidazol-6-yl]-2-morpholin-4-ylpyrimidin-4-yl}amine] was tested, and the IC50 (Homo sapiens, Fibroblast) was 0.5 to 1 µM.
Cn1nc(CCN2CCOCC2)c2ccc(-c3cc(Nc4ccc(-c5ncco5)cc4)nc(N4CCOCC4)n3)cc21 [{6-[1-methyl-3-(2-morpholin-4-ylethyl)(1H-indazol-6-yl)]-2-morpholin-4-ylpyrimidin-4-yl}(4-(1,3-oxazol-2-yl)phenyl)amine] showed an IC50 (Homo sapiens, Fibroblast) of 0.5 to 1 µM.
Cc1ccn(-c2ccc(Nc3cc(-c4ccc5c(C)nn(C)c5c4)nc(N4CCOCC4)n3)cc2)n1 [[6-(1,3-dimethyl(1H-indazol-6-yl))-2-morpholin-4-ylpyrimidin-4-yl][4-(3-methylpyrazolyl)phenyl]amine] was tested, and the IC50 was less than 0.5 µM.
CNC(=O)c1ccc(Nc2cc(-c3ccc4cnn(C)c4c3)nc(N3CCOCC3)n2)cn1 [N-methyl(5-{[6-(1-methyl(1H-indazol-6-yl))-2-morpholin-4-ylpyrimidin-4-yl]amino}(2-pyridyl))carboxamide] showed an IC50 (Homo sapiens, Fibroblast) of 0.5 to 1 µM.
Cn1nc(N2CCOCC2)c2ccc(-c3cc(Nc4ccc(Cl)cc4)nc(N4CCOCC4)n3)cc21 [(4-chlorophenyl)[6-(1-methyl-3-morpholin-4-yl(1H-indazol-6-yl))-2-morpholin-4-ylpyrimidin-4-yl]amine] was tested, and the IC50 was 1 to 5 µM.
